# Measurements taken from patent US20240012012A1, “BIOMARKER AND TREATMENT FOR VASCULAR COGNITIVE IMPAIRMENT AND RELATED CONDITIONS” (priority 2020, published 2024).
# Columns and labels:
# [1] = tested on: neurofilament light protein (NFL); assay: Serum NFL levels in patients undergoing coronary artery bypass grafting (CABG); assay type: in vivo, human; conditions: 200 μg/kg/day s.c. for 21 days, vs saline vehicle
# Text: It is well documented that patients undergoing coronary artery bypass grafting (CABG) tend to experience post-surgical cognitive dysfunction. The present study elucidates the response in serum NFL levels to CABG and how that response may be modulated by Ang-(1-7) treatment. Potential CABG participants underwent a screening visit between 2 and 15 days prior to CABG surgery, including a full medical history and physical examination to rule out dementia (Mini-Mental State Exam score less than 25), and depression (Geriatric Depression Scale score greater than 10). Between 1 and 15 days prior to CABG surgery, participants underwent neuropsychological evaluation including memory testing and blood draws for clinical pathology assessment, NFL biomarker assessment. […] At 21 days post-surgery, additional blood samples were obtained, and serum NFL levels were measured.
# The serum NFL concentration was measure in six subjects prior to CABG surgery and in 18 age-matched control subjects. […] Two subjects were administered saline vehicle control. […] Following surgery, serum NFL levels increased about four-fold in the patients treated with saline vehicle compared to pre-surgery level (p=0.0002).
# [2] = tested on: neurofilament light protein (NFL); assay: Serum NFL quantification (Simoa NF-Light), murine heart failure model (Example 1); assay type: in vivo, mouse; conditions: 50 μg/kg/day and 500 μg/kg/day, relative to HF-saline
# Method: Male C57Bl/6J adult mice (Harlan, 8-10 weeks old) were randomly assigned to either the sham control (n=12) or heart failure (HF) group (n=44). All mice prior to surgery were weighed and anesthetized. For the HF mice, myocardial infarction (MI) was induced by ligation of the left coronary artery (LCA). Under anesthesia (2.5% isoflurane in a mixture of air and 02) a thoracotomy was performed at the fourth left intercostal space and the LCA permanently ligated to induce a myocardial infarction (MI). Occlusion of the LCA was confirmed by observing blanching, a slight change in color of the anterior wall of the left ventricle downstream of the ligature. Sham mice underwent the same procedure with the exception of ligating the LCA.
# Following 5 weeks post MI surgery, mice were treated for […] with daily subcutaneous injections as follows:
# NFL Quantification: Immediately following the final NOR test, mice were sacrificed and serum samples were obtained for NFL quantification using the Simoa™ NF-Light® kit (Quanterix Cat #103186, Lot #501953), which quantifies neurofilament light (NFL). Assay samples were diluted 1:4 and calibrators were undiluted. As samples and calibrators were run in duplicate and analyzed using the HD-X Analyzer software package.
# TNFα = assay: Plasma cytokines, MILLIPLEX MAP Mouse High Sensitivity Multiplex Immunoassay; assay type: in vivo; conditions: 50 μg/kg/day; values at or below assay threshold represented as 3.12
# Method: Mice were assigned randomly to the following treatment groups: Control-Saline (sham MI surgery, treated with saline), HF-treated (HF-PNA5, or HF-Ang-(1-7) with either 50 μg/kg/day, or 500 μg/kg/day), or HF-saline. Mice recovered for 5 weeks following MI before receiving 24 days of daily subcutaneous drug treatment. Within the last 3 days of injections, animals underwent Novel Object Recognition (NOR) testing (FIG. 6). […]
# Cytokine concentrations were measured in the brain lysates and plasma samples by multiplex immunoassay using a MAGPIX Multiplexing Instrument and accompanying Multiplex Analyst software (MILLIPLEX MAP Mouse Cytokine/Chemokine Magnetic Bead Panel-Immunology Multiplex Assay; MCYTOMAG-70 K; Millipore Sigma, Burlington, Massachusetts). […] All samples were run in duplicate, and the results were analyzed using ANOVA and relevant post using GraphPad Prism9. To create a composite cytokine score, we calculated the z-scores for IL-2, IL-13, and IL-17 brain cytokines. […] The z-score was calculated for each cytokine using the following equation: […]
# brain cytokines = assay: Whole brain lysate cytokines, MILLIPLEX MAP Mouse High Sensitivity Multiplex Immunoassay; assay type: in vivo
# Method: Mice were assigned randomly to the following treatment groups: Control-Saline (sham MI surgery, treated with saline), HF-treated (HF-PNA5, or HF-Ang-(1-7) with either 50 μg/kg/day, or 500 μg/kg/day), or HF-saline. Mice recovered for 5 weeks following MI before receiving 24 days of daily subcutaneous drug treatment. Within the last 3 days of injections, animals underwent Novel Object Recognition (NOR) testing (FIG. 6). Animal treatment groups were as listed: heart failure (HF)-saline treated n=15, (HF-Saline), Sham surgery-saline treated n=15 (Control-Saline), HF-Ang-(1-7) at 500 μg/kilogram body weight/day for 24 days (HF-A500) n=15, HF-Ang-(1-7) at 50 μg/kg body weight/day for 24 days (HF-A50) n=15, HF-PNA5 at 500 μg/kilogram body weight/day (HF-P500) n=15, HF-PNA5 at 50 μg/kilogram body weight/day (HF-P50) n=15. Following MI, up to 7 mice died within a group resulting in varying number of mice per group that were available to undergo treatment, NOR testing, and provide serum samples.
# Mice were anesthetized with isoflurane and rapidly decapitated. Brains were separated from the skull and quickly cut into two hemispheres. The halves of the brain were then rapidly frozen in corning tubes in liquid nitrogen and stored at −80° C. One half of each brain was lysed using 1 mL RIPA buffer (1% Triton X-100, 0.1% SDS, 1×PBS) with protease (protease inhibitor cocktail 100× [Sigma P8340]) and phosphatase inhibitors (phosphatase inhibitor cocktail 100× [Sigma P5726]). Tissue was then sonicated using an ultrasonic cell disruptor at 30% 40% amplitude for 1 min. Samples were returned to ice in between sonication to prevent the tissue from warming. Samples were then centrifuged at 4° C. or 15 min at 13,000×g. The supernatant was collected and stored at −80° C. Total protein was measured in the range of […]. Brain lysates were used for multiplex immunoassays.
# Cytokine concentrations were measured in the brain lysates and plasma samples by multiplex immunoassay using a MAGPIX Multiplexing Instrument and accompanying Multiplex Analyst software (MILLIPLEX MAP Mouse Cytokine/Chemokine Magnetic Bead Panel-Immunology Multiplex Assay; MCYTOMAG-70 K; Millipore Sigma, Burlington, Massachusetts). Simultaneous measurements of granulocyte colony-stimulating factor (GCSF), granulocyte-macrophage colony-stimulating factor, interferon, interleukin (IL)-1a, IL-1B, IL-2, IL-4, IL-5, IL-6, IL-7, IL-9, IL-10, IL-12 (p40), IL-12 (p70), IL-13, IL-15, IL-17, interferon-induced protein 10, chemokine (C-X-C motif) (CXC) ligand 1 (KC), chemokine (C-C motif) ligand (CCL) 2 (monocyte chemoattractant protein-1), CCL3 [macrophage inflammatory protein (MIP) 1a], CCL4 (MIP1b), CXC ligand 2 (MIP2), CCL5 [RANTES (regulated on activation normal T cell expressed and secreted)], and tumor necrosis factor-alpha (TNF-α) were captured. All samples were run in duplicate, and the results were analyzed using ANOVA and relevant post using GraphPad Prism9. To create a composite cytokine score, we calculated the z-scores for IL-2, IL-13, and IL-17 brain cytokines. Z-scores were then added to create a composite cytokine score. The z-score was calculated for each cytokine using the following equation: […]
substance,measurement,setting,value
"DRVYIHP [Ang-(1-7), Asp-Arg-Val-Tyr-Ile-His-Pro, Mas receptor agonist]",post-surgical increase in serum NFL,[1],significantly reduced that post-surgical increase
same,HF-induced increase in serum NFL levels,[2],reversed
same,"plasma TNFα, mean",TNFα,3.12 pg/mL
same,"brain IL-1α, mean ± SE",brain cytokines; 50 ug/kg,95.6 ± 8.4 pg/mL
same,"brain IL-10 (row head as printed; title says IP-10), mean ± SE",brain cytokines; 50 ug/kg,42.2 ± 3.2 pg/mL
same,"brain IL-17, mean ± SE",brain cytokines; 50 ug/kg,44.1 ± 2.8 pg/mL
same,"brain IL-1α, mean ± SE",brain cytokines; 500 ug/kg,95.6 ± 5.5 pg/mL
same,"brain IL-2, mean ± SE",brain cytokines; 500 ug/kg,50.9 ± 1.9 pg/mL
same,"brain IL-5, mean ± SE",brain cytokines; 500 ug/kg,53.2 ± 2.7 pg/mL
same,"brain IL-10 (row head as printed; title says IP-10), mean ± SE",brain cytokines; 500 ug/kg,43.8 ± 4.2 pg/mL
same,"brain IL-17, mean ± SE",brain cytokines; 500 ug/kg,42.0 ± 1.1 pg/mL
same,"brain lysate levels of IL-1α, IL-2, IL-5, IL-13, and IL-17 compared to HF-Saline",brain cytokines; A50 or A500 (50 or 500 ug/kg),significantly increased
